Experimental findings from patent US9617260B2, “Inhibitors of bruton's tyrosine kinase” (Hoffmann-La Roche Inc., priority 2013, dated 2017) are described below.

SMILES strings stand for the structures.

For orientation: IC50 means the concentration at which inhibition is half-maximal. Higher therefore signals weaker potency in that assay.

The assay has as its target Bruton's Tyrosine Kinase (BTK), inactivated state (Homo sapiens (Human), UniProt Q06187). The experiment in a line: Bruton's Tyrosine Kinase (BTK) Inhibition TR-FRET (Time Resolved FRET) competition assay. The format is binding. The settings on record: competition with Kinase Tracer 178 for BTK-Eu; plates incubated 18-24 h at 14° C. The procedure:
Bruton's Tyrosine Kinase (BTK) Inhibition TR-FRET (Time Resolved FRET) Assay
This BTK competition assay measures compound potency (IC50) for the inactivated state of Bruton's Tyrosine Kinase using FRET (Förster/Fluoresence Resonance Energy Transfer) technology. The BTK-Eu complex was incubated on ice one hour prior to use at a starting concentration of 50 nM BTK-Bioease™: 10 nM Eu-streptavidin (Perkin-Elmer Catalog #AD0062). The assay buffer consisted of 20 mM HEPES (pH 7.15), 0.1 mM DTT, 10 mM MgCl2, 0.5 mg/ml BSA with 3% Kinase Stabilizer (Fremont Biosolutions, Catalog #STB-K02). After 1 h, the reaction mixture from above was diluted 10 fold in assay buffer to make 5 nM BTK: 1 nM Eu-Streptavidin complex (donor fluorophore). 18 μl of a mixture of 0.11 nM BTK-Eu and 0.11 nM Kinase Tracer 178 (Invitrogen, Catalog #PV5593,) with BTK-Eu alone as no negative control, was then dispensed into 384-well flat bottom plates (Greiner, 784076). Compounds to be tested in assay were prepared as 10× concentrations and serial dilution in half-log increments was performed in DMSO so as to generate 10 point curves. To initiate the FRET reaction, compounds prepared as 10× stock in DMSO was added to the plates and the plates were incubated 18-24 h at 14° C.
After the incubation the plates were read on a BMG Pherastar Fluorescent plate reader (or equivalent) and used to measure the emission energy from the europium donor fluorophore (620 nm emission) and the FRET (665 nm emission). The negative control well values were averaged to obtain the mean minimum. The positive “no inhibitor” control wells were averaged to obtain the mean maximum. Percent of maximal FRET was calculated using following equation: % max FRET=100×[(FSRcmpd−FSRmean min)/(FSRmean max−FSRmean min)]
where FSR=FRET Signal ratio. % Max FRET curves were plotted in Activity Base (Excel) and the IC50 (%), hill slope, z′ and % CV were determined The mean IC50 and standard deviation will be derived from duplicate curves (singlet inhibition curves from two independent dilutions) using Microsoft Excel.
Representative compound data for this assay are listed below in Table II.
On the technique in general: TR-FRET usually uses a lanthanide donor and a delayed reading to cut background.

Bruton's Tyrosine Kinase (BTK), inactivated state, sequence (Q06187 whole entry): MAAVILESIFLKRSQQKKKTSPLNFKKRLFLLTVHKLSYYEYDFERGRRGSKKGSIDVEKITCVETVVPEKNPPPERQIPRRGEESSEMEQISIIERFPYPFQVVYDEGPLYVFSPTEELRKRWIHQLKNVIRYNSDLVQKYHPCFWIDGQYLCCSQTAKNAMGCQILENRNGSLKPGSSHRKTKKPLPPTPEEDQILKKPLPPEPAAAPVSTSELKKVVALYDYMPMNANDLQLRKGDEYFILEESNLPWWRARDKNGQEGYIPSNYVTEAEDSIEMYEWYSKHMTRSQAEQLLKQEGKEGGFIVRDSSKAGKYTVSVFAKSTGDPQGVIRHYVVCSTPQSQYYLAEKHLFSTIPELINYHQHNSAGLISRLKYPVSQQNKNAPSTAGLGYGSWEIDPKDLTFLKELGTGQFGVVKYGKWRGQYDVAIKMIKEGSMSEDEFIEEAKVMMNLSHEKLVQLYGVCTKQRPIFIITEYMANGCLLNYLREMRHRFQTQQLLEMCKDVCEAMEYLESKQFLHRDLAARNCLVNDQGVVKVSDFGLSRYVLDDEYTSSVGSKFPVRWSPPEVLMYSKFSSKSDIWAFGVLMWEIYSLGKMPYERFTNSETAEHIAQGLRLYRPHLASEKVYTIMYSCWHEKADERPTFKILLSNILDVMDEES

Compound `CN(C)C/C=C/C(=O)Nc1cccc(-c2c[nH]c3ncc(NC(=O)OCc4ccccc4)cc23)c1` [Compound 1, benzyl N-[3-[3-[[(E)-4-(dimethylamino)but-2-enoyl]amino]phenyl]-1H-pyrrolo[2,3-b]pyridin-5-yl]carbamate] registered an IC50 of 7 nM.

As for `C=CC(=O)Nc1cccc(-c2c[nH]c3ncc(NC(=O)OCc4ccccc4)cc23)c1` [Compound 2, benzyl N-[3-[3-(prop-2-enoylamino)phenyl]-1H-pyrrolo[2,3-b]pyridin-5-yl]carbamate], the IC50 was found to be 0.3 nM.

Regarding `C=CC(=O)Nc1cccc(-c2c[nH]c3ncc(NC(=O)OC(C)C)cc23)c1` [Compound 3, propan-2-yl N-[3-[3-(prop-2-enoylamino)phenyl]-1H-pyrrolo[2,3-b]pyridin-5-yl]carbamate], the IC50 was 0.3 nM.

In turn, `CCC(=O)C(=O)Nc1cccc(-c2c[nH]c3ncc(NC(=O)OCc4ccccc4)cc23)c1` [Compound 4, benzyl N-[3-[3-(2-oxobutanoylamino)phenyl]-1H-pyrrolo[2,3-b]pyridin-5-yl]carbamate] displayed an IC50 of 8 nM. Against the preceding compound, the IC50 is about 27-fold higher.

As to `CC(C)OC(=O)Nc1cnc2[nH]cc(-c3cccc(NC(=O)/C=C/CN(C)C)c3)c2c1` [Compound 5, propan-2-yl N-[3-[3-[[(E)-4-(dimethylamino)but-2-enoyl]amino]phenyl]-1H-pyrrolo[2,3-b]pyridin-5-yl]carbamate], the IC50 was found to be 13 nM.

For `C=CC(=O)N(C)c1cccc(-c2c[nH]c3ncc(NC(=O)OC(C)C)cc23)c1` [Compound 6, propan-2-yl N-[3-[3-[methyl(prop-2-enoyl)amino]phenyl]-1H-pyrrolo[2,3-b]pyridin-5-yl]carbamate], the IC50 is 24 nM.

Turning to `COCCC(=O)N(C)c1cccc(-c2c[nH]c3ncc(NC(=O)OC(C)C)cc23)c1` [Compound 7, propan-2-yl N-[3-[3-[3-methoxypropanoyl(methyl)amino]phenyl]-1H-pyrrolo[2,3-b]pyridin-5-yl]carbamate], the IC50 was determined as 880 nM.

On to `CCC(=O)C(=O)Nc1cccc(-c2c[nH]c3ncc(NC(=O)OC(C)C)cc23)c1` [Compound 8, propan-2-yl N-[3-[3-(2-oxobutanoylamino)phenyl]-1H-pyrrolo[2,3-b]pyridin-5-yl]carbamate], for which the IC50 came to 49 nM.

`C=C(C(=O)Nc1cccc(-c2c[nH]c3ncc(NC(=O)OCc4ccccc4)cc23)c1)C(F)(F)F` [Compound 9, benzyl N-[3-[3-[2-(trifluoromethyl)prop-2-enoylamino]phenyl]-1H-pyrrolo[2,3-b]pyridin-5-yl]carbamate] yielded a half-inhibitory concentration (IC50) of 72 nM.

As to `CC(C)(C)C(=O)C(=O)Nc1cccc(-c2c[nH]c3ncc(NC(=O)OCc4ccccc4)cc23)c1` [Compound 10, benzyl N-[3-[3-[(3,3-dimethyl-2-oxobutanoyl)amino]phenyl]-1H-pyrrolo[2,3-b]pyridin-5-yl]carbamate], the IC50 stood at 100 nM.

`CCC(C)C(=O)C(=O)Nc1cccc(-c2c[nH]c3ncc(NC(=O)OCc4ccccc4)cc23)c1` (centres unmarked) [Compound 11, benzyl N-[3-[3-[(3-methyl-2-oxopentanoyl)amino]phenyl]-1H-pyrrolo[2,3-b]pyridin-5-yl]carbamate] had an IC50 of 206 nM.

`CC(C)CC(=O)C(=O)Nc1cccc(-c2c[nH]c3ncc(NC(=O)OCc4ccccc4)cc23)c1` [Compound 12, benzyl N-[3-[3-[(4-methyl-2-oxopentanoyl)amino]phenyl]-1H-pyrrolo[2,3-b]pyridin-5-yl]carbamate] yielded a concentration for half-maximal inhibition (IC50) of 285 nM.

As for `O=C(Nc1cnc2[nH]cc(-c3cccc(NC(=O)C(=O)c4ccccc4)c3)c2c1)OCc1ccccc1` [Compound 13, benzyl N-[3-[3-[(2-oxo-2-phenylacetyl)amino]phenyl]-1H-pyrrolo[2,3-b]pyridin-5-yl]carbamate], the IC50 amounted to 323 nM.

`CC(=O)C(=O)Nc1cccc(-c2c[nH]c3ncc(NC(=O)OCc4ccccc4Cl)cc23)c1` [Compound 14, (2-chlorophenyl)methyl N-[3-[3-(2-oxopropanoylamino)phenyl]-1H-pyrrolo[2,3-b]pyridin-5-yl]carbamate] showed a concentration for half-maximal inhibition (IC50) of 30 nM. This IC50 is about 11-fold lower than that of the compound before.

Take `CCC(=O)C(=O)Nc1cccc(-c2c[nH]c3ncc(NC(=O)OCc4ccccc4Cl)cc23)c1` [Compound 15, (2-chlorophenyl)methyl N-[3-[3-(2-oxobutanoylamino)phenyl]-1H-pyrrolo[2,3-b]pyridin-5-yl]carbamate]: the IC50 amounted to 60 nM.

In turn, `CCC(=O)C(=O)Nc1cccc(-c2c[nH]c3ncc(NC(=O)OCc4cccc(F)c4)cc23)c1` [Compound 16, (3-fluorophenyl)methyl N-[3-[3-(2-oxobutanoylamino)phenyl]-1H-pyrrolo[2,3-b]pyridin-5-yl]carbamate] yielded a 50% inhibitory concentration (IC50) of 42 nM.

For `CC(=O)C(=O)Nc1cccc(-c2c[nH]c3ncc(NC(=O)OCc4cccc(F)c4)cc23)c1` [Compound 17, (3-fluorophenyl)methyl N-[3-[3-(2-oxopropanoylamino)phenyl]-1H-pyrrolo[2,3-b]pyridin-5-yl]carbamate], the IC50 turned out to be 43.7 nM.

With `C=C(C(=O)Nc1cccc(-c2c[nH]c3ncc(NC(=O)OCc4cccc(F)c4)cc23)c1)C(F)(F)F` [Compound 18, (3-fluorophenyl)methyl N-[3-[3-[2-(trifluoromethyl)prop-2-enoylamino]phenyl]-1H-pyrrolo[2,3-b]pyridin-5-yl]carbamate], the concentration for half-maximal inhibition (IC50) stood at 123 nM.

On to `CCC(=O)C(=O)Nc1cccc(-c2c[nH]c3ncc(NC(=O)OCc4cccc(C#N)c4)cc23)c1` [Compound 19, (3-cyanophenyl)methyl N-[3-[3-(2-oxobutanoylamino)phenyl]-1H-pyrrolo[2,3-b]pyridin-5-yl]carbamate], for which the IC50 came out at 114 nM.

`CC(=O)C(=O)Nc1cccc(-c2c[nH]c3ncc(NC(=O)OCc4cccc(C#N)c4)cc23)c1` [Compound 20, (3-cyanophenyl)methyl N-[3-[3-(2-oxopropanoylamino)phenyl]-1H-pyrrolo[2,3-b]pyridin-5-yl]carbamate]: the IC50 was 137 nM.

`N#CC1(C(=O)Nc2cccc(-c3c[nH]c4ncc(NC(=O)OCc5ccccc5)cc34)c2)CC1` [Compound 21, benzyl N-[3-[3-[(1-cyanocyclopropanecarbonyl)amino]phenyl]-1H-pyrrolo[2,3-b]pyridin-5-yl]carbamate] had an IC50 of 287 nM. This IC50 lies about 2.1-fold higher than the previous one.

`CC(C)OC(=O)Nc1cnc2[nH]cc(-c3cccc(NC(=O)CC#N)c3)c2c1` [Compound 22, propan-2-yl N-[3-[3-[(2-cyanoacetyl)amino]phenyl]-1H-pyrrolo[2,3-b]pyridin-5-yl]carbamate]: the IC50 stood at 620 nM. Compared with the last compound, the IC50 is about 2.2-fold higher.

In turn, `CN(C)C/C=C/C(=O)Nc1ccccc1-c1c[nH]c2ncc(NC(=O)OCc3ccccc3)cc12` [Compound 23, benzyl N-[3-[2-[[(E)-4-(dimethylamino)but-2-enoyl]amino]phenyl]-1H-pyrrolo[2,3-b]pyridin-5-yl]carbamate] registered an IC50 of 331 nM. This IC50 lies about 1.9-fold lower than the previous one.

`CC(=O)C(=O)N1CC=C(c2c[nH]c3ncc(NC(=O)OCc4ccccc4Cl)cc23)CC1` [Compound 24, (2-chlorophenyl)methyl N-[3-[1-(2-oxopropanoyl)-3,6-dihydro-2H-pyridin-4-yl]-1H-pyrrolo[2,3-b]pyridin-5-yl]carbamate]: the concentration for half-maximal inhibition (IC50) was determined as 165 nM.

`CCC(=O)C(=O)N1CC=C(c2c[nH]c3ncc(NC(=O)OCc4ccccc4Cl)cc23)CC1` [Compound 25, (2-chlorophenyl)methyl N-[3-[1-(2-oxobutanoyl)-3,6-dihydro-2H-pyridin-4-yl]-1H-pyrrolo[2,3-b]pyridin-5-yl]carbamate] returned an IC50 of 404 nM.

Turning to `CCC(=O)C(=O)N1CC=C(c2c[nH]c3ncc(NC(=O)OCc4cccc(F)c4)cc23)CC1` [Compound 26, (3-fluorophenyl)methyl N-[3-[1-(2-oxobutanoyl)-3,6-dihydro-2H-pyridin-4-yl]-1H-pyrrolo[2,3-b]pyridin-5-yl]carbamate], the IC50 amounted to 384 nM. The IC50 values of the last two compounds are within 1.5-fold of each other.

Take `CCC(=O)C(=O)N1CC=C(c2c[nH]c3ncc(NC(=O)OCc4ccccc4)cc23)CC1` [Compound 27, benzyl N-[3-[1-(2-oxobutanoyl)-3,6-dihydro-2H-pyridin-4-yl]-1H-pyrrolo[2,3-b]pyridin-5-yl]carbamate]: the IC50 stood at 291 nM.

As to `CC(=O)C(=O)N1CC=C(c2c[nH]c3ncc(NC(=O)OCc4cccc(F)c4)cc23)CC1` [Compound 28, (3-fluorophenyl)methyl N-[3-[1-(2-oxopropanoyl)-3,6-dihydro-2H-pyridin-4-yl]-1H-pyrrolo[2,3-b]pyridin-5-yl]carbamate], the IC50 amounted to 210 nM.

Compound `CC(=O)C(=O)N1CC=C(c2c[nH]c3ncc(NC(=O)OCc4cccc(C#N)c4)cc23)CC1` [Compound 29, (3-cyanophenyl)methyl N-[3-[1-(2-oxopropanoyl)-3,6-dihydro-2H-pyridin-4-yl]-1H-pyrrolo[2,3-b]pyridin-5-yl]carbamate] returned an IC50 of 700 nM. Compared with the last compound, the IC50 is about 3.3-fold higher.
